# In patent publication US20240309043A1, “THERAPEUTICALLY ACTIVE STEROIDAL DERIVATIVES” (Organon R&D Finland Ltd., priority 2017, published 2024):
# What was measured:
# [1] = target: T1, recombinant human 17β-HSD2 (Homo sapiens, UniProt P37059); assay: Inhibition of recombinant human 17β-HSD2; assay type: biochemical; conditions: inhibitor 1 μM; 50 nM estradiol, 1 mM NADH, 30 min RT
# T1 construct: made in house; host or cells: Sd9 (Sf9) insect cells, baculovirus (Bac to Bac Expression System)
# T1 sequence (P37059 1-387): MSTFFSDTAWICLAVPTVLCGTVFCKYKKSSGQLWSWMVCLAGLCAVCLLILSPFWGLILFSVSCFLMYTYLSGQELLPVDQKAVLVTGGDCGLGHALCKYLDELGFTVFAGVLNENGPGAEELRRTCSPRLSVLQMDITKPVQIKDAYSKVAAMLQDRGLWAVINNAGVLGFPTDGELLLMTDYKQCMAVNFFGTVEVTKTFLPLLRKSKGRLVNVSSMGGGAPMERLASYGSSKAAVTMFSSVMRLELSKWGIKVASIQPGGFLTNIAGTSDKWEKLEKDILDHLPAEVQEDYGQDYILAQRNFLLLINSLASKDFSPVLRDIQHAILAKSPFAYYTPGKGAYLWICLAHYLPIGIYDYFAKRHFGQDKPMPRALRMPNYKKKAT
# Procedure, shortened: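 Sf9 baculovirus-expressed enzyme membrane extract (4 μg/ml) incubated 30 min at RT in 20 mM KH2PO4 pH 8.5 with 50 nM estradiol (³H-tracer) and 1 mM NADH, inhibitor at 1 μM or 0.1 μM, 1% DMSO. TCA-stopped; estradiol-to-estrone conversion by radio-HPLC, % inhibition = 100 − % conversion.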
# [2] = target: T2, recombinant human 17β-HSD1 (Homo sapiens, UniProt P14061); assay: Inhibition of recombinant human 17β-HSD1; assay type: biochemical; conditions: inhibitor 100 nM; 30 nM estrone, 1 mM NADPH, 30 min RT
# T2 construct: made in house; host or cells: Sd9 (Sf9) insect cells, baculovirus (Bac to Bac Expression System)
# T2 sequence (P14061 1-328): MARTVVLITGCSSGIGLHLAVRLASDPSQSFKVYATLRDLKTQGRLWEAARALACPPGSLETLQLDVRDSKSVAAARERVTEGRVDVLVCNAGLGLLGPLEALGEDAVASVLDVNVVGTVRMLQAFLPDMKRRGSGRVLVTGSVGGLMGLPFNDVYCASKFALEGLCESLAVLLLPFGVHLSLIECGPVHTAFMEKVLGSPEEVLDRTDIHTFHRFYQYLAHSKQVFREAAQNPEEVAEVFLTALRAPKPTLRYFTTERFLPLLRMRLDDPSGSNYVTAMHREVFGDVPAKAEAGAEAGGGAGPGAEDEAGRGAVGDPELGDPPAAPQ
# Procedure, shortened: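 Microsomes from Sf9 cells expressing human 17β-HSD1 (1 μg/ml) were incubated for 30 min at RT in 20 mM KH2PO4 pH 7.4 with 30 nM ³H-estrone, 1 mM NADPH and inhibitor at 1 μM or 0.1 μM (1% DMSO). Estrone-to-estradiol conversion was measured by radio-HPLC after TCA stop, and % inhibition was taken as 100 − % conversion.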
# [3] = test system: HSD1 enzyme that is expressed in rabbit placenta tissue; assay: Inhibition of E1 to E2 conversion in rabbit placenta tissue homogenate; assay type: biochemical; conditions: inhibitor 100 nM, 30 nM estrone, 30 min
# [4] = test system: human hepatocytes; assay: Metabolic stability assay, human hepatocyte incubations; assay type: in vitro ADME; conditions: 37° C., 0-60 min, half life
# Description: The in vitro metabolic stability of the compounds of the invention was determined for exemplified compounds using human hepatocyte incubations. Study compounds were incubated 0, 10, 20, 40 and 60 min at 37° C. Samples were collected at all time points and compounds were detected by LC-MS/MS analysis. The percent compound remaining is calculated by comparing the peak area of the parent compound at each time point to time zero. In vitro metabolic stability was determined as half life (T½), which was determined by regression analysis of the percent parent disappearance vs. time curve. The results are summarized in Table2.
smiles,measurement,setting,value
"CC(C)c1ccc(NC(=O)CC[C@@H]2C/C(=N\O)[C@@]3(C)CCC4c5ccccc5CCC4C23)nc1 (stereo partly drawn) [Compound 96, 3-((13S,15R,E)-17-(hydroxyimino)-13-methyl-7,8,9,11,12,13,14,15,16,17-decahydro-6H-cyclopenta[a]phenanthren-15-yl)-N-(5-isopropylpyridin-2-yl)propanamide]",inhibition at 1 µM,[1],-4%
same,inhibition at 0.1 µM,[2],84%
same,Rabbit placenta inhibition % @100 nM,[3],51%
same,Human hepatocytes MetStab T1_2 min,[4],46 min
"Cc1cc(NC(=O)CC[C@@H]2C/C(=N\O)[C@@]3(C)CCC4c5cccc(F)c5CCC4C23)no1 (stereo partly drawn) [Compound 2, 3-((13S,15R,E)-4-fluoro-17-(hydroxyimino)-13-methyl-7,8,9,11,12,13,14,15,16,17-decahydro-6H-cyclopenta[a]phenanthren-15-yl)-N-(5-methylioxazol-3-yl)propanamide]",inhibition at 1 µM,[1],9%
same,inhibition at 0.1 µM,[2],83%
same,Rabbit placenta inhibition % @100 nM,[3],75%
same,Human hepatocytes MetStab T1_2 min,[4],38 min
"C[C@]12CCC3c4cccc(F)c4CCC3C1[C@H](CCC(=O)Nc1ccc(N3CCOCC3)cn1)C/C2=N\O (stereo partly drawn) [Compound 114, 3-((13S,15R,E)-4-fluoro-17-(hydroxyimino)-13-methyl-7,8,9,11,12,13,14,15,16,17-decahydro-6H-cyclopenta[a]phenanthren-15-yl)-N-(5-morpholinopyridin-2-yl)propanamide]",inhibition at 1 µM,[1],7%
same,inhibition at 0.1 µM,[2],100%
same,Rabbit placenta inhibition % @100 nM,[3],75%
same,Human hepatocytes MetStab T1_2 min,[4],40 min
"CC(C)c1ccc(NC(=O)CC[C@@H]2C/C(=N\O)[C@@]3(C)CCC4c5ccc(F)cc5CCC4C23)nc1 (stereo partly drawn) [Compound 42, 3-((13S,15R,E)-3-fluoro-17-(hydroxyimino)-13-methyl-7,8,9,11,12,13,14,15,16,17-decahydro-6H-cyclopenta[a]phenanthren-15-yl)-N-(5-isopropylpyridin-2-yl)propanamide]",inhibition at 1 µM,[1],-5%
same,inhibition at 0.1 µM,[2],96%
same,Rabbit placenta inhibition % @100 nM,[3],41%
same,Human hepatocytes MetStab T1_2 min,[4],78 min
"COc1ccnc(NC(=O)CC[C@@H]2C/C(=N\O)[C@@]3(C)CCC4c5ccccc5CCC4C23)c1 (stereo partly drawn) [Compound 106, 3-((13S,15R,E)-17-(hydroxyimino)-13-methyl-7,8,9,11,12,13,14,15,16,17-decahydro-6H-cyclopenta[a]phenanthren-15-yl)-N-(4-methoxypyridin-2-yl)propanamide]",inhibition at 1 µM,[1],2%
same,inhibition at 0.1 µM,[2],76%
same,Rabbit placenta inhibition % @100 nM,[3],5%
same,Human hepatocytes MetStab T1_2 min,[4],31 min
"C[C@]12CCC3c4ccccc4CCC3C1[C@H](CCC(=O)Nc1ccc(N3CCOCC3)cn1)C/C2=N\O (stereo partly drawn) [Compound 90, 3-((13S,15R,E)-17-(hydroxyimino)-13-methyl-7,8,9,11,12,13,14,15,16,17-decahydro-6H-cyclopenta[a]phenanthren-15-yl)-N-(5-morpholinopyridin-2-yl)propanamide]",inhibition at 1 µM,[1],-6%
same,inhibition at 0.1 µM,[2],82%
same,Rabbit placenta inhibition % @100 nM,[3],47%
same,Human hepatocytes MetStab T1_2 min,[4],83 min
